Laboratory results from paper PMC3448056, “2-Benzamido-N-(1H-benzo[d]imidazol-2-yl)thiazole-4-carboxamide derivatives as potent inhibitors of CK1δ/ε” (Amino Acids, 2012).
“And” between values parts separate entries of the source, which are not always exact repeats. Equal values may be shown once.

Assays:
[1] = biological target: T1, CK1δkd (Rattus norvegicus, UniProt Q06486); test: In vitro kinase assay, CK1δ kinase domain; type: biochemical; conditions: for inhibition of CK1δkd in initial screen: inhibitor 10 μM, 10 μM ATP (Fig. 1a); for mode of inhibition: inhibitor at IC50 concentration, ATP 0.01-0.5 mM (Fig. 6)
T1 construct: Recombinant CK1δ kinase domain (CK1δkd, NEB, Frankfurt am Main, Germany); purchased NEB, Frankfurt am Main, Germany
T1 sequence (Q06486 9-277 limits assumed): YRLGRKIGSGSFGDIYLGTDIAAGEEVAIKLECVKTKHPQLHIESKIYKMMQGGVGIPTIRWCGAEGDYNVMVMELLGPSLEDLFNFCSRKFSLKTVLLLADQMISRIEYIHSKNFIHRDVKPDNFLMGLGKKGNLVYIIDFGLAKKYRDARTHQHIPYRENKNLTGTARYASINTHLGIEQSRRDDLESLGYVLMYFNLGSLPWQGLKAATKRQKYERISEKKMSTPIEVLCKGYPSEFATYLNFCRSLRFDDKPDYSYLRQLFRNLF

[2] = tested on: Colo357 cells; test: Flow cytometry cell cycle analysis; type: cell-based, human; conditions: Colo357, 2 or 4 μM, 48 h
Description: (§1) Frwt648 cells [generated by SV40-transformation of F111 cells; (Hinzpeter and Deppert [1987])] and mKSA cells [SV40-transformed Balb/c fibroblasts; (Kit et al. [1969])] were grown in Dulbecco’s modified Eagle’s medium (DMEM) supplemented with 5% fetal calf serum (FCS; Biochrom, Berlin, Germany). The fibrosarcoma cell line HT1080 (Rasheed et al. [1974]) was grown in DMEM containing 10% FCS and 2 mM glutamine while both the prostate cancer cell line DU-145 (Stone et al. [1978]) and the ovary tissue cancer cell line OVCAR-3 (Hamilton et al. [1983]) were maintained in RPMI-1640 supplemented with 10% FCS. The pancreatic cancer cell line Colo357 (Morgan et al. [1980]) was grown in DMEM/RPMI (1:1) and the colon adenocarcinoma cell line SW480 (Leibovitz et al. [1976]) in Leibovitz L-15 medium, both containing 10% FCS and 2 mM glutamine. All media were supplemented with 100 U/ml penicillin and 100 μg/ml streptomycin (Gibco, Karlsruhe, Germany) and all cell lines were grown at 37°C in a humidified 5% carbon dioxide atmosphere.
(§2) Subconfluent Frwt648, mKSA, Colo357, OVCAR-3, HT1080, DU-145 and SW480 cells were treated with 2 or 4 μM of compounds 5 or 6 for 48 h. Untreated and DMSO treated cells served as control. Cells were harvested, washed once with phosphate-buffered saline (PBS), and prepared for cell cycle analysis using the “Cycle Test Plus Kit” (BD, San Jose, USA). Cell cycle profiles were obtained using a FACScan flow cytometer and CellQuest software (BD Biosciences, San Jose, USA).

[3] = tested on: SW480 cells; test: Flow cytometry cell cycle analysis; type: cell-based, human; conditions: SW480, 2 or 4 μM, 48 h (data not shown)
Description: as §1, §2

[4] = tested on: OVCAR-3 cells; test: Flow cytometry cell cycle analysis; type: cell-based, human; conditions: 48 h
Description: as §1, §2

[5] = biological target: T2, GST-rat CK1δ^M82F (Rattus norvegicus, UniProt Q06486, M82F); test: In vitro kinase assay, gatekeeper mutant; type: biochemical; conditions: inhibitor at its determined IC50 concentration (Fig. 7)
T2 construct: made in house; host or cells: bacteria (pGEX-2T)
T2 sequence (Q06486 1-415 M82F): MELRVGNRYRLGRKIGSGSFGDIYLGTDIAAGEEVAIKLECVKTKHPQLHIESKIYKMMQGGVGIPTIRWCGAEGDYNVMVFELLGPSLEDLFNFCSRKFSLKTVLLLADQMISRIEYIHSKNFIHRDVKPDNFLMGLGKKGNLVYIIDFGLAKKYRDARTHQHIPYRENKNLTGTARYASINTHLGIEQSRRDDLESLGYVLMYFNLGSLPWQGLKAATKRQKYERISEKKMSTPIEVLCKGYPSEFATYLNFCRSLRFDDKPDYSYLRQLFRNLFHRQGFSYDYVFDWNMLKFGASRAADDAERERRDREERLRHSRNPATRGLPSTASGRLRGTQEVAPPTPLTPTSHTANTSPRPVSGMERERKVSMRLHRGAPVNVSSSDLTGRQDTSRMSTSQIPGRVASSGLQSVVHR
Description: For the expression of wt rat CK1δ and rat CK1δ^M82F as glutathione S-transferase fusion proteins the plasmids pGEX-2T-CK1δ (FP449) (Knippschild et al. [1997]) and pGEX-2T-CK1δ^M82F (FP1153) (Peifer et al. [2009]) were used.
Expression and purification of the GST-fusion proteins GST-mouse p53^1–64 (FP267), GST-rat CK1δ (FP449), GST-rat CK1δ^M82F (FP1153), GST-mouse CK1δTV1 (FP1170), and GST-mouse CK1δTV2 (FP1171) was carried out as described elsewhere (Wolff et al. [2005]). Expression of fusion proteins FP1170 and 1171 was either performed at 37°C for 2 h, or at 15°C for 14 h. FP449 and FP1153 were always expressed at 15°C for 14 h.
In vitro kinase assays were carried out in the presence of various potential inhibitors of CK1δ at an ATP concentration of 0.01 mM and dimethyl sulfoxide (DMSO) solvent control as described previously (Knippschild et al. [1996]). Where indicated higher ATP concentrations (0.05, 0.1, 0.25 and 0.5 mM) were used. The fusion protein GST-mouse p53^1−64 (FP267) was used as substrate. Recombinant CK1δ kinase domain (CK1δkd, NEB, Frankfurt am Main, Germany), GST-rat CK1δ (FP449), GST-rat CK1δ^M82F (FP1153), GST-mouse CK1δTV1, GST-mouse CK1δTV2 and recombinant human CK1ε (Invitrogen, Karlsruhe, Germany) were used as sources of enzyme. Phosphorylated proteins were separated by SDS-PAGE and the protein bands were visualized on dried gels by autoradiography. The phosphorylated protein bands were excised and quantified by Cherenkov counting.
Previously it has been shown that methionine 82 plays an important role as gatekeeper residue in the docking mode of isoxazoles to the ATP binding pocket since mutation of methionine 82 to phenylalanine blocks binding of this class of CK1δ specific inhibitors (Peifer et al. [2009]) while still binding ATP. Therefore, we now analyzed the effects of exchanging methionine 82 to phenylalanine on the ability of compounds 4, 5 and 6 to inhibit CK1δ activity.

[6] = biological target: T3, human CK1ε (Homo sapiens, UniProt P49674); test: In vitro kinase assay, CK1ε; type: biochemical; conditions: for inhibition of CK1ε in initial screen: inhibitor 10 μM, 10 μM ATP (Fig. 1b)
T3 construct: purchased Invitrogen, Karlsruhe, Germany
T3 sequence (P49674 whole entry): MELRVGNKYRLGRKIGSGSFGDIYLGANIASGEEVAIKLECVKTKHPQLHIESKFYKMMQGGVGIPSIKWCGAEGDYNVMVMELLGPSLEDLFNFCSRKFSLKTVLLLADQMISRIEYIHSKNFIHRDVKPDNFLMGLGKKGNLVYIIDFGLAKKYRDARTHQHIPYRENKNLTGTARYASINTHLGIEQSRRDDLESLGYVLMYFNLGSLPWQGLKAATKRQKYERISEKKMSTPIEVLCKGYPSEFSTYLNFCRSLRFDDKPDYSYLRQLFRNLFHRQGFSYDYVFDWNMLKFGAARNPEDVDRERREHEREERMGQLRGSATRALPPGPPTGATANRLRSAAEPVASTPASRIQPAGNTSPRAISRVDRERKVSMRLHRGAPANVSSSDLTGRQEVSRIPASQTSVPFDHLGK

[7] = tested on: mKSA cells; test: Flow cytometry cell cycle analysis; type: cell-based, mouse; conditions: 2 and 4 μM, 48 h, range stated jointly for Frwt648 and mKSA and compounds 5 and 6
Description: as §1
Subconfluent Frwt648, mKSA, Colo357, OVCAR-3, HT1080, DU-145 and SW480 cells were treated with 2 or 4 μM of compounds 5 or 6 for 48 h. Untreated and DMSO treated cells served as control. Cells were harvested, washed once with phosphate-buffered saline (PBS), and prepared for cell cycle analysis using the “Cycle Test Plus Kit” (BD, San Jose, USA). […]

[8] = biological target: T4, GST-rat CK1δ (Rattus norvegicus, UniProt Q06486); test: In vitro kinase assay, GST-rat CK1δ; type: biochemical; conditions: for GST-wt CK1δ activity in the presence of inhibitor: inhibitor at its determined IC50 concentration (Fig. 7)
T4 construct: made in house; host or cells: bacteria (pGEX-2T)
T4 sequence (Q06486 whole entry): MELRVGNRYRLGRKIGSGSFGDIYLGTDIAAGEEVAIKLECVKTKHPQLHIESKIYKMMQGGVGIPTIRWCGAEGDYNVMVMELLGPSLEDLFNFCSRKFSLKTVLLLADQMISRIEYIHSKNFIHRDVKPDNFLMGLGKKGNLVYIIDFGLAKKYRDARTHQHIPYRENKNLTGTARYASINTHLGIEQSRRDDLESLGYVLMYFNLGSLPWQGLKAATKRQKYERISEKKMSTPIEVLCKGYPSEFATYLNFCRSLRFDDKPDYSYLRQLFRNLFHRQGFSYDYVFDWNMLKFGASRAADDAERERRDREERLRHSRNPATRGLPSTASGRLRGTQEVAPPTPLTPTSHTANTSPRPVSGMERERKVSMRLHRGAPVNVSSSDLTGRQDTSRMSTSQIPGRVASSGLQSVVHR

[9] = 0.01 mM ATP, substrate GST-mouse p53^1-64, mean ± SD

Compound | inhibition of CK1δkd in initial screen [1] | mode of inhibition [1] | effect on cell cycle distribution [2] | dead cells [3] [%] | effect on cell cycle distribution ([4]; OVCAR-3, 2 or 4 μM) | kinase activity of GST-CK1δ^M82F in comparison with inhibition of GST-wt CK1δ [5] | inhibition of CK1ε in initial screen [6] | dead cells [7] | GST-wt CK1δ activity in the presence of inhibitor [8] | higher affinity towards CK1δ than to CK1ε ([8]; ratio of IC50 values CK1ε / CK1δ) | IC50 [1, 9] [µM] | cells died upon treatment ([4]; OVCAR-3, 4 μM) [%] | IC50 [6, 9] | IC50 [8, 9] [µM]
O=C(Nc1nc2ccc(C(F)(F)F)cc2[nH]1)c1csc(NC(=O)c2ccccc2OC(F)(F)F)n1 [Compound 5, 2-(2-(Trifluoromethoxy)benzamido)-N-(6-(trifluoromethyl)-1H-benzo[d]imidazol-2-yl)thiazole-4-carboxamide] | significant inhibition | ATP competitive inhibitors | more cells appeared to be in the G1 phase | ≤ 20 | slight increase of cells in the G2 phase | much more affected | significant inhibition | 35–98% | clearly decreased | fivefold | – | – | – | –
O=C(Nc1nc2cc(Cl)c(F)cc2[nH]1)c1csc(NC(=O)c2ccccc2OC(F)(F)F)n1 [Compound 6, N-(5-Chloro-6-fluoro-1H-benzo[d]imidazol-2-yl)-2-(2-(trifluoromethoxy)benzamido)thiazole-4-carboxamide] | significant inhibition | ATP competitive inhibitors | more cells appeared to be in the G1 phase | ≤ 20 | – | similarly or even less affected | significant inhibition | 35–98% | clearly decreased | – | 0.085 ± 0.01 | 39 | 0.0326 µM and 0.033 µM | 0.042 ± 0.05
